Test results taken from patent publication US20260226025A1, “PHARMACEUTICALLY ACCEPTABLE SALT AND CRYSTAL FORM OF TRIAZOLE COMPOUND, AND PREPARATION METHOD THEREFOR” (JIANGSU HENGRUI PHARMACEUTICALS CO., LTD., priority 2023, published 2026).
Each block holds one molecule with its values, some of them ahead of it.

How the values were obtained:
Type in all cases: physicochemical
[1] = Influencing factor stability study (open containers; light, high temperature, high humidity); settings: for physical and chemical stability (conclusion): standing for 1 month, influencing factor conditions
Method: Samples of the free-state crystal forms A and B of the compound represented by formula I were spread in open containers and left to stand under light exposure (4500 Lux), high temperature (40° C. and 60° C.), and high humidity (RH 75% and RH 93%) conditions for 1 month to study their stability.
Samples of the crystal forms I and II of the sodium salt of the compound represented by formula I were spread in open containers and left to stand under light exposure (4500 Lux), high temperature (40° C. and 60° C.), and high humidity (RH 75%) conditions for 1 month to study their stability.

[2] = Long-term/accelerated stability; settings: for physical and chemical stability (conclusion): long-term accelerated conditions for 6 months
[3] = DVS (dynamic vapor sorption) hygroscopicity test
Method: The MS analyses were performed using an Agilent 1200/1290 DAD-6110/6120 Quadrupole MS liquid chromatography-mass spectrometry system (manufacturer: Agilent; MS model: 6110/6120 Quadrupole MS), waters ACQuity UPLC-QD/SQD (manufacturer: waters; MS model: waters ACQuity Qda Detector/waters SQ Detector), and THERMO Ultimate 3000-Q Exactive (manufacturer: THERMO; MS model: THERMO Q 15 Exactive). The HPLC analyses were performed using an Agilent 1260DAD high pressure liquid chromatograph (Sunfire C18 150×4.6 mm chromatography column) and a Thermo U3000 high pressure liquid chromatograph (Gimini C18 150× 4.6 mm chromatography column). XRPD refers to X-ray powder diffraction: The analysis was performed using a BRUKER D8 X-ray diffractometer; specific acquisition information: a Cu anode (40 kV, 40 mA), ray: monochromatic Cu-Ka ray (1=1.5418 Å). Scan mode: θ/2θ; scan range: 3-48°. DSC refers to differential scanning calorimetry: The analysis was performed using a METTLER TOLEDO DSC 3+ differential scanning calorimeter, with a temperature ramp rate of 10° C./min, specific temperature ranges shown in corresponding patterns (mostly 25° C.-300° C.), and a nitrogen purge speed of 50 mL/min. TGA refers to thermogravimetric analysis: The analysis was performed using a METTLER TOLEDO TGA 2 thermogravimetric analyzer, with a temperature ramp rate of 10° C./min, specific temperature ranges shown in corresponding patterns (mostly 30° C.-400° C.), and a nitrogen purge speed of 50 mL/min. DVS refers to dynamic vapor sorption: Surface Measurement Systems instrinsic was adopted; the humidity started at 50%, the humidity range of the investigation was 0%-95%, and the humidity was increased in increments of 10%; the criterion was as follows: each gradient mass change dM/dT≤0.002%; TMAX 360 min, two cycles.

[4] = 25° C./60% RH, 1 month, listed as Free-state crystal form A
[5] = 25° C./60% RH, 2 months, listed as Free-state crystal form A
[6] = 25° C./60% RH, 3 months, listed as Free-state crystal form A
[7] = 25° C./60% RH, 6 months, listed as Free-state crystal form A
[8] = 40° C./75% RH, 1 month, listed as Free-state crystal form A
[9] = 40° C./75% RH, 2 months, listed as Free-state crystal form A
[10] = 40° C./75% RH, 3 months, listed as Free-state crystal form A
[11] = 40° C./75% RH, 6 months, listed as Free-state crystal form A
[12] = Initial, 0, listed as Free-state crystal form A
[13] = accelerated experimental conditions, 70% RH
[14] = normal storage conditions, 25° C. and 60% RH
[15] = 25° C./60% RH, 1 month, listed as Free-state crystal form B
[16] = 25° C./60% RH, 2 months, listed as Free-state crystal form B
[17] = 25° C./60% RH, 3 months, listed as Free-state crystal form B
[18] = 25° C./60% RH, 6 months, listed as Free-state crystal form B
[19] = 40° C./75% RH, 1 month, listed as Free-state crystal form B
[20] = 40° C./75% RH, 2 months, listed as Free-state crystal form B
[21] = 40° C./75% RH, 3 months, listed as Free-state crystal form B
[22] = 40° C./75% RH, 6 months, listed as Free-state crystal form B
[23] = Initial, 0, listed as Free-state crystal form B

Crystal form ([1]; 40° C., 1 month): Crystal form A
Purity % ([1]; 40° C., 1 month): 98.6%
Crystal form ([1]; 40° C., 7 days): Crystal form A
Purity % ([1]; 40° C., 7 days): 98.6%
Crystal form ([1]; 40° C., 14 days): Crystal form A
Purity % ([1]; 40° C., 14 days): 98.6%
Crystal form ([1]; 60° C., 1 month): Crystal form A
Purity % ([1]; 60° C., 1 month): 98.6%
Crystal form ([1]; 60° C., 7 days): Crystal form A
Purity % ([1]; 60° C., 7 days): 98.6%
Crystal form ([1]; 60° C., 14 days): Crystal form A
Purity % ([1]; 60° C., 14 days): 98.6%
Crystal form ([1]; 75% RH, 1 month): Crystal form A
Purity % ([1]; 75% RH, 1 month): 98.6%
Crystal form ([1]; 75% RH, 7 days): Crystal form A
Purity % ([1]; 75% RH, 7 days): 98.6%
Crystal form ([1]; 75% RH, 14 days): Crystal form A
Purity % ([1]; 75% RH, 14 days): 98.6%
Crystal form ([1]; 93% RH, 1 month): Crystal form A
Purity % ([1]; 93% RH, 1 month): 98.6%
Crystal form ([1]; 93% RH, 7 days): Crystal form A
Purity % ([1]; 93% RH, 7 days): 98.6%
Crystal form ([1]; 93% RH, 14 days): Crystal form A
Purity % ([1]; 93% RH, 14 days): 98.6%
Crystal form ([1]; 4500 Lux, 1 month): Crystal form A
Purity % ([1]; 4500 Lux, 1 month): 97.0%
Crystal form ([1]; 4500 Lux, 7 days): Crystal form A
Purity % ([1]; 4500 Lux, 7 days): 98.3%
Crystal form ([1]; 4500 Lux, 14 days): Crystal form A
Purity % ([1]; 4500 Lux, 14 days): 98.1%
Crystal form ([1]; Initial, 0 days): Crystal form A
Purity % ([1]; Initial, 0 days): 98.6%
physical and chemical stability (conclusion) [1]: good physical and chemical stability
Crystal form [2, 4]: Crystal form A
Purity % [2, 4]: 98.6%
Crystal form [2, 5]: Crystal form A
Purity % [2, 5]: 98.6%
Crystal form [2, 6]: Crystal form A
Purity % [2, 6]: 98.6%
Crystal form [2, 7]: Crystal form A
Purity % [2, 7]: 98.6%
Crystal form [2, 8]: Crystal form A
Purity % [2, 8]: 98.6%
Crystal form [2, 9]: Crystal form A
Purity % [2, 9]: 98.6%
Crystal form [2, 10]: Crystal form A
Purity % [2, 10]: 98.6%
Crystal form [2, 11]: Crystal form A
Purity % [2, 11]: 98.6%
Crystal form [2, 12]: Crystal form A
Purity % [2, 12]: 98.6%
physical and chemical stability (conclusion) [2]: good physical and chemical stability
hygroscopic weight gain [3, 13]: about 0.20%
crystal form re-identified after the DVS test [3]: its crystal form did not change
hygroscopic weight gain ([3]; extreme conditions, 90% RH): about 0.37%
hygroscopic weight gain [3, 14]: about 0.17%
Compound: COCc1ccnc(OCc2c(-c3ccc(O[C@H]4C[C@@H]5CC[C@H](C(=O)O)[C@@H]5C4)c(C)n3)nnn2C)n1 [Crystal form A, (1S,3aS,5S,6aR)-5-((6-(5-(((4-(methoxymethyl)pyrimidin-2-yl)oxy)methyl)-1-methyl-1H-1,2,3-triazol-4-yl)-2-methylpyridin-3-yl)oxy) octahydropentalene-1-carboxylic acid]

Crystal form ([1]; 40° C., 1 month): Crystal form B
Purity % ([1]; 40° C., 1 month): 97.7%
Crystal form ([1]; 40° C., 7 days): Crystal form B
Purity % ([1]; 40° C., 7 days): 97.7%
Crystal form ([1]; 40° C., 14 days): Crystal form B
Purity % ([1]; 40° C., 14 days): 97.7%
Crystal form ([1]; 60° C., 1 month): Crystal form B
Purity % ([1]; 60° C., 1 month): 97.7%
Crystal form ([1]; 60° C., 7 days): Crystal form B
Purity % ([1]; 60° C., 7 days): 97.7%
Crystal form ([1]; 60° C., 14 days): Crystal form B
Purity % ([1]; 60° C., 14 days): 97.7%
Crystal form ([1]; 75% RH, 1 month): Crystal form B
Purity % ([1]; 75% RH, 1 month): 97.7%
Crystal form ([1]; 75% RH, 7 days): Crystal form B
Purity % ([1]; 75% RH, 7 days): 97.7%
Crystal form ([1]; 75% RH, 14 days): Crystal form B
Purity % ([1]; 75% RH, 14 days): 97.7%
Crystal form ([1]; 93% RH, 1 month): Crystal form B
Purity % ([1]; 93% RH, 1 month): 97.7%
Crystal form ([1]; 93% RH, 7 days): Crystal form B
Purity % ([1]; 93% RH, 7 days): 97.7%
Crystal form ([1]; 93% RH, 14 days): Crystal form B
Purity % ([1]; 93% RH, 14 days): 97.7%
Crystal form ([1]; 4500 Lux, 1 month): Crystal form B
Purity % ([1]; 4500 Lux, 1 month): 97.0%
Crystal form ([1]; 4500 Lux, 7 days): Crystal form B
Purity % ([1]; 4500 Lux, 7 days): 97.7%
Crystal form ([1]; 4500 Lux, 14 days): Crystal form B
Purity % ([1]; 4500 Lux, 14 days): 97.5%
Crystal form ([1]; Initial, 0 days): Crystal form B
Purity % ([1]; Initial, 0 days): 97.7%
physical and chemical stability (conclusion) [1]: good physical and chemical stability
Crystal form [2, 15]: Crystal form B
Purity % [2, 15]: 97.7%
Crystal form [2, 16]: Crystal form B
Purity % [2, 16]: 97.7%
Crystal form [2, 17]: Crystal form B
Purity % [2, 17]: 97.7%
Crystal form [2, 18]: Crystal form B
Purity % [2, 18]: 97.7%
Crystal form [2, 19]: Crystal form B
Purity % [2, 19]: 97.7%
Crystal form [2, 20]: Crystal form B
Purity % [2, 20]: 97.7%
Crystal form [2, 21]: Crystal form B
Purity % [2, 21]: 97.7%
Crystal form [2, 22]: Crystal form B
Purity % [2, 22]: 97.7%
Crystal form [2, 23]: Crystal form B
Purity % [2, 23]: 97.7%
physical and chemical stability (conclusion) [2]: good physical and chemical stability
hygroscopic weight gain [3, 13]: about 0.31%
crystal form re-identified after the DVS test [3]: its crystal form did not change
hygroscopic weight gain ([3]; extreme conditions, 90% RH): about 0.64%
hygroscopic weight gain [3, 14]: about 0.25%
Compound: COCc1ccnc(OCc2c(-c3ccc(O[C@H]4C[C@@H]5CC[C@H](C(=O)O)[C@@H]5C4)c(C)n3)nnn2C)n1 [Crystal form B, (1S,3aS,5S,6aR)-5-((6-(5-(((4-(methoxymethyl)pyrimidin-2-yl)oxy)methyl)-1-methyl-1H-1,2,3-triazol-4-yl)-2-methylpyridin-3-yl)oxy) octahydropentalene-1-carboxylic acid]
